Activity calls are given as the source filed them.
How the values were obtained:
[1] = viability loss in Vero cells – cell-based, purified and synthesized samples, set 8, cytotoxicity control for M. tuberculosis inhibitor project (AID 602431); assay type: functional; details: Mycobacterium tuberculosis
[2] = THP-1 cell cytotoxicity, cytotoxicity control, set 6 (AID 602433); assay type: functional; details: Mycobacterium tuberculosis
[3] = test system: HEK293; assay: EBV LMP1 TES2 canonical NF-kB signalling blockers – cell-based, HEK293, luciferase, cherry-pick, dose response (AID 588343); assay type: functional; details: Homo sapiens
[4] = biological target: Latent membrane protein 1 (Human herpesvirus 4 (strain B95-8), UniProt P03230); assay: LMP1 TES1 pathway selectivity over dsRED control – imaging, HEK293T, dual-color eGFP/dsRED, cherry-picks, selectivity assay for LMP1 NF-kB inhibitor project, dose response (AID 588398); assay type: functional, cell-based
[5] = biological target: T1, Oxysterols receptor LXR-beta (Homo sapiens, UniProt P55055); assay type: functional, cell-based;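 further: agonist activity at LXR measured by a cell-based luminescence readout across a dose range, run as a counterscreen for daf-12 agonists; HEK293 cells with Gal4-LXR fusion and GAL4-driven luciferase reporter; potency for activation of Gal4-LXR reporter so compounds are agonists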
T1 sequence (P55055 whole entry): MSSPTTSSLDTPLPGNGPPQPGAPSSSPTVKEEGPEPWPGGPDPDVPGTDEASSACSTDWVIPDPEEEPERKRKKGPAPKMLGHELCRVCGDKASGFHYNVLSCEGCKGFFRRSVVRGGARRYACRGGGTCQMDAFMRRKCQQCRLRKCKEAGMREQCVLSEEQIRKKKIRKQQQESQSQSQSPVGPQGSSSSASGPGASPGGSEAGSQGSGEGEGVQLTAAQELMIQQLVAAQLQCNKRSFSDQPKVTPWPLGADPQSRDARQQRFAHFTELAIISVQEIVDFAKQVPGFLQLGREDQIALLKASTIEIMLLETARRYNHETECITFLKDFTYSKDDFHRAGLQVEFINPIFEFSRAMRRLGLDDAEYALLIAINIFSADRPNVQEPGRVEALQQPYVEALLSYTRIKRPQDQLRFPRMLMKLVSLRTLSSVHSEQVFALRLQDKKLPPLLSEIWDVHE

[6] = biological target: Death-associated protein kinase 3 (Homo sapiens, UniProt O43293); assay type: functional;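 further: measured as one member of a kinome-wide profiling panel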
[7] = biological target: LIM domain kinase 1 (Homo sapiens, UniProt P53667); assay: Navigating the Kinome. Panel member name: LIMK1; assay type: functional
[8] = biological target: Serine/threonine-protein kinase Chk1 (Homo sapiens, UniProt O14757); assay type: functional;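 further: measured as one member of a kinome-wide kinase profiling panel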
[9] = biological target: G protein-coupled receptor kinase 5 (Homo sapiens, UniProt P34947); assay: Navigating the Kinome. Panel member name: GPRK5; assay type: functional
[10] = biological target: 26S proteasome non-ATPase regulatory subunit 14 (Homo sapiens, UniProt O00487); assay: inhibition of proteasome subunit RPN11 – biochemical, fluorescence polarization, uHTS hits, confirmation (AID 602368); assay type: functional
[11] = biological target: 72 kDa type IV collagenase (Homo sapiens, UniProt P08253); assay: Dose Response validation of uHTS RPN11 inhibitor hits using a MMP-2 Fluorescence assay.; assay type: functional
[12] = biological target: Prothrombin (Bos taurus, UniProt P00735); assay: thrombin protease inhibitors – biochemical, fluorescence polarization, uHTS hits, dose response (AID 602369); assay type: functional
[13] = biological target: T2, Caspase-3 (Homo sapiens, UniProt P42574); assay: inhibition of recombinant caspase-3 activity – biochemical, luminescence, set 2, selectivity assay for SENP protease inhibitor project, SAR follow-up (AID 588599); assay type: functional
T2 sequence (P42574 whole entry): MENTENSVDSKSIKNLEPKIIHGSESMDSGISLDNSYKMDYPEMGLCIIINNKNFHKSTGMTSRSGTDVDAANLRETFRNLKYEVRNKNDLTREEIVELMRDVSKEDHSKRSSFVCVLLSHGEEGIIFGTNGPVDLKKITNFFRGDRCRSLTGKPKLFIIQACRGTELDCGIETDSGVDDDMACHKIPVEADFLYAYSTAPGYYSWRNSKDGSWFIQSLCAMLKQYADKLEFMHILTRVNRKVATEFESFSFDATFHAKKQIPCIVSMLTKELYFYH

[14] = biological target: T3, Sentrin-specific protease 8 (Homo sapiens, UniProt Q96LD8); assay: inhibition of sentrin protease 8 – biochemical, luminescence, set 2, SAR follow-up (AID 588601); assay type: functional
T3 sequence (Q96LD8 whole entry): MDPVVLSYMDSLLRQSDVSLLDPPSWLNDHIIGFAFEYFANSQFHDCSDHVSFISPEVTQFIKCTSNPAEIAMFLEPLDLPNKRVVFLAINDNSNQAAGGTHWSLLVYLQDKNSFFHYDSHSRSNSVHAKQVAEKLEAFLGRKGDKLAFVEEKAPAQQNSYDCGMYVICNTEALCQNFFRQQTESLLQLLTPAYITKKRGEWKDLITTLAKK

[15] = biological target: T4, Sentrin-specific protease 7 (Homo sapiens, UniProt Q9BQF6); assay: inhibition of human SENP7 cleavage activity – biochemical, luminescence, set 2, SAR follow-up (AID 588600); assay type: functional
T4 sequence (Q9BQF6 whole entry): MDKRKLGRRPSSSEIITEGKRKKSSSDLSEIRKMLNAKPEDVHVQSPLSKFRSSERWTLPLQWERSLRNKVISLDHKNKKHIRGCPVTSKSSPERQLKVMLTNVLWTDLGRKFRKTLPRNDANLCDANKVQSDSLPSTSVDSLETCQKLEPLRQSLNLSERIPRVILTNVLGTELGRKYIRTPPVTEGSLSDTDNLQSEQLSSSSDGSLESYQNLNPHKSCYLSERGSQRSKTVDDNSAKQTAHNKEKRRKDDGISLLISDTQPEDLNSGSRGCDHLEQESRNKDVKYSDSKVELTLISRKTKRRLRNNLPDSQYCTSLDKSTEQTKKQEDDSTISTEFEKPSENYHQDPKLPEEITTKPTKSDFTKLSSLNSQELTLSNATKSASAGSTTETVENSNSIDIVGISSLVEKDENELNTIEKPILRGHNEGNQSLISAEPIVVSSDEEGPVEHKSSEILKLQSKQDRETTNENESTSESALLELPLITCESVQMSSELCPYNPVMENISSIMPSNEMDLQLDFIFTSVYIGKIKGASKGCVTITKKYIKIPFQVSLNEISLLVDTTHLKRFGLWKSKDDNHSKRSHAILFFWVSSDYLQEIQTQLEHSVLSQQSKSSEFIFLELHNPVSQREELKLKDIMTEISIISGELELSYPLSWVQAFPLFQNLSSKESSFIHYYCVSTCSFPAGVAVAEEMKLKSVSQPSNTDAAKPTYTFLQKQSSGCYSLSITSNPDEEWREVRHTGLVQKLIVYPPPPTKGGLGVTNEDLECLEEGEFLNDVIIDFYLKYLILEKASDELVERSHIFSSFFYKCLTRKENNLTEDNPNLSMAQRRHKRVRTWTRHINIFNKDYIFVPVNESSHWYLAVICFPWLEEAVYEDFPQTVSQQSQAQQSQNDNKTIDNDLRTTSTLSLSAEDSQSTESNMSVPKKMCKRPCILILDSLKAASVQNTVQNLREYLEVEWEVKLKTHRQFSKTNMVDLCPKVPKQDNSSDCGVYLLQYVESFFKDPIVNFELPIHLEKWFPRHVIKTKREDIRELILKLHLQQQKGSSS

[16] = biological target: T5, Sentrin-specific protease 6 (Homo sapiens, UniProt Q9GZR1); assay: inhibition of human SENP6 catalytic domain – biochemical, luminescence, set 2, SAR follow-up (AID 588598); assay type: functional
T5 sequence (Q9GZR1 whole entry): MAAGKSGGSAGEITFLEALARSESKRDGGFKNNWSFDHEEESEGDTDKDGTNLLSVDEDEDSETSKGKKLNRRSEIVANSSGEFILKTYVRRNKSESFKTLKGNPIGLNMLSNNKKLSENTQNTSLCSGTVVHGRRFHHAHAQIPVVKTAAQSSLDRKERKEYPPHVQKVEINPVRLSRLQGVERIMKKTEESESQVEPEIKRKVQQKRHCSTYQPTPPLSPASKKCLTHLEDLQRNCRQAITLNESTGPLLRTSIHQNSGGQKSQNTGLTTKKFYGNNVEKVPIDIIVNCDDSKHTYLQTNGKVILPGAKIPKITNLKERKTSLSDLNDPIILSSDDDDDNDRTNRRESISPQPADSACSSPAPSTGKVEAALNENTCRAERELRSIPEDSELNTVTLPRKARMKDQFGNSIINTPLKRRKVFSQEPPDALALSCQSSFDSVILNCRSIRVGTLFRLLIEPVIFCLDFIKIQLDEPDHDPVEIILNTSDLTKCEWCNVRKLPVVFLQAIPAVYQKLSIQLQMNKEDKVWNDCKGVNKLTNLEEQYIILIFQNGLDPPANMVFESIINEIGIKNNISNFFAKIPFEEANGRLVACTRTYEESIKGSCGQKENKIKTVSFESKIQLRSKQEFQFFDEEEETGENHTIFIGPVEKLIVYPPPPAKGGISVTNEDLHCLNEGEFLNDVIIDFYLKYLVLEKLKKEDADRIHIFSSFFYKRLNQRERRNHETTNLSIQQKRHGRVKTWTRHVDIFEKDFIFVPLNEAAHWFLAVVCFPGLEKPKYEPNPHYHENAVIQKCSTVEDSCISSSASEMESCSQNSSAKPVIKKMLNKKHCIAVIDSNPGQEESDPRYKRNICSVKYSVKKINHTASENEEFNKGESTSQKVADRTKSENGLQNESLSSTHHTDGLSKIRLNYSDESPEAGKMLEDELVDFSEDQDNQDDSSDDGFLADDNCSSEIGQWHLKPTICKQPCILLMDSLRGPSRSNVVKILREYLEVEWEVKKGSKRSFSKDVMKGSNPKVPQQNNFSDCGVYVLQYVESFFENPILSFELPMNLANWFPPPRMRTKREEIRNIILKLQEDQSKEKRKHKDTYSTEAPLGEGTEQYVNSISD

[17] = biological target: T6, Beta Lactamase (Pseudomonas aeruginosa, UniProt Q932Y6);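 further: confirmatory high-throughput screen measuring VIM-2 metallo-beta-lactamase inhibition by epi-absorbance in dose response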
[18] = biological target: Beta-lactamase (Pseudomonas aeruginosa, UniProt Q79MP6);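 further: biochemical dose-response test of metallo-beta-lactamase enzyme inhibition, read out by epi-absorbance; purified recombinant IMP-1 metallo-beta-lactamase with nitrocefin as substrate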
[19] = biological target: Beta-lactamase (Salmonella choleraesuis (strain SC-B67), UniProt Q5J463)
[20] = test system: CHO; assay: CHO cell viability loss, potency – luminescence, cytotoxicity control for TLR9-MyD88 binding inhibitor project, dose response (AID 588339); assay type: functional, cell-based, hamster; details: Cricetulus griseus;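 further: CHO cells stably coexpressing TLR9 and MyD88 fusions from primary screen; compound exposure lasted 48 hours before viability readout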
[21] = biological target: T6, Beta Lactamase; assay: BLA reporter interference, concentration series – BLA reporter cells, FRET fluorescence, artefact control for TLR9-MyD88 binding inhibitor project, dose response (AID 588341); assay type: cell-based;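 further: cell based assay in CHO-K1 cells stably expressing beta-lactamase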
[22] = biological target: Sphingosine 1-phosphate receptor 2 (Homo sapiens, UniProt O95136); assay: Late-stage fluorescence-based dose-response cell-based counterscreen assay to identify agonists of the Sphingosine 1-Phosphate Receptor 3 (S1P3): Sphingosine 1-Phosphate Receptor 2 (S1P2) agonist assay.; assay type: functional
[23] = biological target: T7, Sphingosine 1-phosphate receptor 4 (Homo sapiens, UniProt O95977); assay: Late-stage fluorescence-based dose-response cell-based counterscreen assay to identify agonists of the Sphingosine 1-Phosphate Receptor 3 (S1P3): Sphingosine 1-Phosphate Receptor 4 (S1P4) agonist assay.; assay type: functional
T7 sequence (O95977 whole entry): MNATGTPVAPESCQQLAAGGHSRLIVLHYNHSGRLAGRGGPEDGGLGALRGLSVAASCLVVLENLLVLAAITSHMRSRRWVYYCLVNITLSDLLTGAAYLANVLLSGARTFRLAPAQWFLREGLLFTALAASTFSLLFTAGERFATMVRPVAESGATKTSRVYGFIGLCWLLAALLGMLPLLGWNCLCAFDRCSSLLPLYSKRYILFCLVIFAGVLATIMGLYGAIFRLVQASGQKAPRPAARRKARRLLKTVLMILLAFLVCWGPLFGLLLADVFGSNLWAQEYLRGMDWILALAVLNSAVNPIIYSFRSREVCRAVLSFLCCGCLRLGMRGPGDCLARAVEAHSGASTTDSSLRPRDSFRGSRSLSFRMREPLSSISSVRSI

[24] = biological target: T3, Sentrin-specific protease 8; assay: inhibition of human SENP8 cleavage activity – biochemical, luminescence, SAR follow-up (AID 504501); assay type: functional
[25] = biological target: T2, Caspase-3; assay: SAR Analysis of small molecule inhibitors of Sentrin-specific proteases (SENPs) using a Caspase-3 Selectivity assay. [Related pubchem assays (depositor defined):AID2540, AID2599, AID434973, AID489001]; assay type: functional
[26] = biological target: T5, Sentrin-specific protease 6; assay: SAR Analysis of small molecule inhibitors of Sentrin-specific protease 6 (SENP6) using a Luminescent assay. [Related pubchem assays (depositor defined):AID2582, AID2599]; assay type: functional
[27] = biological target: T4, Sentrin-specific protease 7; assay: inhibition of human SENP7 cleavage activity – biochemical, luminescence, SAR follow-up (AID 504497); assay type: functional

T6 sequence (Q932Y6 whole entry): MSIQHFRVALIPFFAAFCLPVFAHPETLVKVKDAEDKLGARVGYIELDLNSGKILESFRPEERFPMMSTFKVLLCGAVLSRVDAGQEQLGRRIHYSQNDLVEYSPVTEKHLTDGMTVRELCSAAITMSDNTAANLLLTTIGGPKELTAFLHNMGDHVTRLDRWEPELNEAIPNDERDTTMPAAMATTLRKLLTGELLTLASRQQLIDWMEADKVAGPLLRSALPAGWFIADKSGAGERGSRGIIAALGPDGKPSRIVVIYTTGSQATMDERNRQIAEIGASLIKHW
Chain of Serine/threonine-protein kinase Chk1 (O14757 whole entry): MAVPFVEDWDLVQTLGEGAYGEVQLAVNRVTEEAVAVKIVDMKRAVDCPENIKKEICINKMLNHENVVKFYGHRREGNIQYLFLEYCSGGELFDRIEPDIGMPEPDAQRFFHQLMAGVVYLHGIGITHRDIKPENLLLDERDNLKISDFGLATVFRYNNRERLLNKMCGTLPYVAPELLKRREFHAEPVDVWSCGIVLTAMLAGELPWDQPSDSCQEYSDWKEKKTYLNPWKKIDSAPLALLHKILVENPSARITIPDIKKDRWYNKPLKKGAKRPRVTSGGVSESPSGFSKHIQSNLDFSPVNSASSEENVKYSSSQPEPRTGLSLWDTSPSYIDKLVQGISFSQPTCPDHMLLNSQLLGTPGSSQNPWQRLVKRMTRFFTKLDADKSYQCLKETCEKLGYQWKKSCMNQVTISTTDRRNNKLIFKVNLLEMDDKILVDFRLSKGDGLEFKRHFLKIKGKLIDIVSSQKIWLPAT
Chain of G protein-coupled receptor kinase 5 (P34947 whole entry): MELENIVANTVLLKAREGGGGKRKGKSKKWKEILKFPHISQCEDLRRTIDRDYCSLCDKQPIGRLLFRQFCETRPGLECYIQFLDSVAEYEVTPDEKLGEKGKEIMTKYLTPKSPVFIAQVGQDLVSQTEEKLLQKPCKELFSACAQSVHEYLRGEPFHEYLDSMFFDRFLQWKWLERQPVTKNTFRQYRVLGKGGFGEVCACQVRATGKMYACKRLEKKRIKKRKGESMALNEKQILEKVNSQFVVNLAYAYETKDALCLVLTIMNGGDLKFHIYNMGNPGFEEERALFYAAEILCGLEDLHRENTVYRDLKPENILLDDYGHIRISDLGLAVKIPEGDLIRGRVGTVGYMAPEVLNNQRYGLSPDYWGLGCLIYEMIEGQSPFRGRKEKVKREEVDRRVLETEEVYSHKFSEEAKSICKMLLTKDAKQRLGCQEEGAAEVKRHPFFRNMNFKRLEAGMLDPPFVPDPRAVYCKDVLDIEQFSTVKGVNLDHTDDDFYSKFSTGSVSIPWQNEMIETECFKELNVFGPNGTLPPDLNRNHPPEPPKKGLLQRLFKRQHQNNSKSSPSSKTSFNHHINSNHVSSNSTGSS
Chain of 26S proteasome non-ATPase regulatory subunit 14 (O00487 whole entry): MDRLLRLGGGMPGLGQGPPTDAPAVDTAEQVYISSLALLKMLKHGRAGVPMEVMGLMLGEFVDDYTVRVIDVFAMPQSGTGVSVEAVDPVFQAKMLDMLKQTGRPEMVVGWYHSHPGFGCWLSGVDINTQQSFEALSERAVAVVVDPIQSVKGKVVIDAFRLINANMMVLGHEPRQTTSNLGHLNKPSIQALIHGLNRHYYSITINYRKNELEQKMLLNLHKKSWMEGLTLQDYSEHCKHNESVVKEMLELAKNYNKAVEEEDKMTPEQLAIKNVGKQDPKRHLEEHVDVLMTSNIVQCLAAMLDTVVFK
Chain of LIM domain kinase 1 (P53667 whole entry, the tested form may be a part): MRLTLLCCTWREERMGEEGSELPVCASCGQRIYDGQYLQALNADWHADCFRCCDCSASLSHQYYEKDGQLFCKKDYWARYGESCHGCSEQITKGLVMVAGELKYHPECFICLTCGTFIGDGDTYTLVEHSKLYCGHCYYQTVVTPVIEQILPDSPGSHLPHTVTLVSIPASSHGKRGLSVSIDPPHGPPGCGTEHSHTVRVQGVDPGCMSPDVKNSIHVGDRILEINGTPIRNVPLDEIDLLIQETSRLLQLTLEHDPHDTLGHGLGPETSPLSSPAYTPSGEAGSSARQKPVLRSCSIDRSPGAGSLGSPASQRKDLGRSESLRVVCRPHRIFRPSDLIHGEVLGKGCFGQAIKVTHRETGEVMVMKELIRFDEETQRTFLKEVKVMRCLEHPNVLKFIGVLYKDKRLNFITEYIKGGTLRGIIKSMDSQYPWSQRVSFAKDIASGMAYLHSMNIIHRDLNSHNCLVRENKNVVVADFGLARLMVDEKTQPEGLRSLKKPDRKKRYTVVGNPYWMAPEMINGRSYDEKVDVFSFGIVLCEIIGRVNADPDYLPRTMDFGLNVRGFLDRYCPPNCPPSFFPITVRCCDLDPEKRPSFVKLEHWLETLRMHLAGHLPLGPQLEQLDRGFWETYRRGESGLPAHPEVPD
Chain of Latent membrane protein 1 (P03230 whole entry, the tested form may be a part): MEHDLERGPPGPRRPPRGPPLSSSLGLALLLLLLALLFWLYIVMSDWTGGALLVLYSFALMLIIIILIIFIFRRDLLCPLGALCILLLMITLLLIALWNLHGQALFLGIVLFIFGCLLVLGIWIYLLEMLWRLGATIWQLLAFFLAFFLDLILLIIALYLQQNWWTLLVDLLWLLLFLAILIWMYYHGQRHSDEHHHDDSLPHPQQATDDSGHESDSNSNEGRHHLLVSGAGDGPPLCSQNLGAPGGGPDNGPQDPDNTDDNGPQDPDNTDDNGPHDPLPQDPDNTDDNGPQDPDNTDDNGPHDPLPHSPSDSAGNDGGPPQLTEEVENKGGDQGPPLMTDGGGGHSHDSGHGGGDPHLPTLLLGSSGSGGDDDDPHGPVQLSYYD
Chain of Beta-lactamase (Pseudomonas aeruginosa, UniProt Q79MP6) (Q79MP6 whole entry): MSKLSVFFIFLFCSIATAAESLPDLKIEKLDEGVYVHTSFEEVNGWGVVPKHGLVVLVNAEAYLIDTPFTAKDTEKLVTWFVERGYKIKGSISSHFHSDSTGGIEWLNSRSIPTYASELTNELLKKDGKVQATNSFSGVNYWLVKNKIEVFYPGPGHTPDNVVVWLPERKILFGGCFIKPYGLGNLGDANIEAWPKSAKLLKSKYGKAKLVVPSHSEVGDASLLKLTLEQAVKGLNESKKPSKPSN
Chain of Death-associated protein kinase 3 (O43293 whole entry, the tested form may be a part): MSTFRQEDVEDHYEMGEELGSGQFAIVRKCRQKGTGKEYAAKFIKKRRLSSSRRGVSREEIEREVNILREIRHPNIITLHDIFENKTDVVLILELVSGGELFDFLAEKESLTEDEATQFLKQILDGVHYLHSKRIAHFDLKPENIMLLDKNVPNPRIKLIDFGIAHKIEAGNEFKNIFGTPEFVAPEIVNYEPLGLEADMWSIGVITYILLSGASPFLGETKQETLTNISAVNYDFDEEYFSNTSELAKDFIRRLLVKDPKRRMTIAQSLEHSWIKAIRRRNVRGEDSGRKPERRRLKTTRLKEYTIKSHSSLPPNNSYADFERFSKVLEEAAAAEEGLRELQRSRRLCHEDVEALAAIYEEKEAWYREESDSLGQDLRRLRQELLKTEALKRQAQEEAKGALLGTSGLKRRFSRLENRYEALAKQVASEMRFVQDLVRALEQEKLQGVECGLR
Chain of Beta-lactamase (Salmonella choleraesuis (strain SC-B67), UniProt Q5J463) (Q5J463 whole entry, the tested form may be a part): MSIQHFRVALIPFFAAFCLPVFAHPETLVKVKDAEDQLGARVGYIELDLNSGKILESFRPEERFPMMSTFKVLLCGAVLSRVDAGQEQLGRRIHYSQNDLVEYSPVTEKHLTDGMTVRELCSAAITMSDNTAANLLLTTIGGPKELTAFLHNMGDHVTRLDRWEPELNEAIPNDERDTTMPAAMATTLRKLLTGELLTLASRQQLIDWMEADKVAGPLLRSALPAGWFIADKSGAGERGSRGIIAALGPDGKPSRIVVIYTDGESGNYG
Chain of 72 kDa type IV collagenase (P08253 whole entry): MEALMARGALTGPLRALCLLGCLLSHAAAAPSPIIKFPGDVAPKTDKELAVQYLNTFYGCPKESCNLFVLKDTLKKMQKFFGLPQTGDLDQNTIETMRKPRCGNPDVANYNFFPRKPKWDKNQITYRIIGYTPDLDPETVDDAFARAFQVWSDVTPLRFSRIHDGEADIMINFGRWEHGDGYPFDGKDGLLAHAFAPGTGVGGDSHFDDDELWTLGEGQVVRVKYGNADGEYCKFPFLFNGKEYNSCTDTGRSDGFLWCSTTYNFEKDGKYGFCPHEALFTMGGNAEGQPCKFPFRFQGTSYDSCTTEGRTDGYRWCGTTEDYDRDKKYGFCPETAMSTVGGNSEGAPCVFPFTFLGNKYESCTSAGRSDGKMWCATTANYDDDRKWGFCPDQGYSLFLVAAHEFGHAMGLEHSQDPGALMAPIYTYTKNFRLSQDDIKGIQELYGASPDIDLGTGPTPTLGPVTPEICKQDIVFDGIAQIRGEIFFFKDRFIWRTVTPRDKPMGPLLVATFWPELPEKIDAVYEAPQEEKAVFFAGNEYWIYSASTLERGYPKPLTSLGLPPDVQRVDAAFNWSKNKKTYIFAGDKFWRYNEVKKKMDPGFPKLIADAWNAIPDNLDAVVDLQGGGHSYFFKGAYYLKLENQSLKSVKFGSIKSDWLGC
Chain of Sphingosine 1-phosphate receptor 2 (O95136 whole entry): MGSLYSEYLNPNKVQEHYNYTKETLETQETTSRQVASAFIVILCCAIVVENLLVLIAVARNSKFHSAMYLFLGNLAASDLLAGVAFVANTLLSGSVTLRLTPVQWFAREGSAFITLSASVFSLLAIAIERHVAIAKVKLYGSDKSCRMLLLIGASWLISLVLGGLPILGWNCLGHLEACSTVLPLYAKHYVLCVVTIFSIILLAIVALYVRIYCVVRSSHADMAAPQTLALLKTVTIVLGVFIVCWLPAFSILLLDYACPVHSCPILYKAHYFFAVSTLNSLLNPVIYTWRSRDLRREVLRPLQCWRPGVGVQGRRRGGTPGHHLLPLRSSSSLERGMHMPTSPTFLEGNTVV

O=C(CSc1nc2c(c(=O)[nH]1)CN(Cc1ccccc1)CC2)NC1CCCCC1
CC50 [1]: > 100 µM (inconclusive) | CC50 [2]: > 100 µM (inconclusive)

CCc1sc(C(=O)Nc2ncccc2O)cc1C
AC50 [3]: 3.71 µM (active) | AC50 [4]: 29.7 µM (active) | EC50 [5]: > 67.5 µM (inactive)

Cc1nn(C)c(C)c2cc([N+](=O)[O-])cc1-2
Ki [6]: 3.98 µM (active) | Ki [7]: 2 µM (active) | Ki [8]: 1.58 µM (active) | Ki [9]: 3.98 µM (active)

O=C(N/N=C/c1ccncc1)c1cccc(NC(=O)c2ccc(Cl)cc2)c1
IC50 [10]: 30.4 µM (active) | IC50 [11]: > 100 µM (inactive) | IC50 [12]: > 100 µM (inactive)

Cc1[nH]c2ccccc2c1/C=N/NC(=O)Cc1nnc(N)s1
IC50 [13]: > 99 µM (inactive) | IC50 [14]: > 99 µM (inactive) | IC50 [15]: > 99 µM (inactive) | IC50 [16]: > 99 µM (inactive)

O=C(O)c1ccccc1-c1ccc(/C=C/c2cc(C(F)(F)F)nc(O)n2)o1
IC50 [17]: 25 µM (inactive) | IC50 [18]: 30.2 µM (inactive) | IC50 [19]: 6.74 µM (active) | IC50 [20]: > 49.8 µM (inactive) | IC50 [21]: 7 µM (active)

O=C(c1cc(-c2ccccc2)on1)N(C1CCCCC1)C1CCCCC1
EC50 [22]: > 50 µM (inactive) | EC50 [23]: > 50 µM (inactive)

O=C(Nc1nc2ccc(Cl)cc2s1)c1ccsc1
IC50 [24]: 0.83 µM (active) | IC50 [25]: 2.3 µM (active) | IC50 [26]: 0.83 µM (active) | IC50 [27]: 1.1 µM (active)

From ChEMBL document CHEMBL1201862, “PubChem BioAssay data set” (2004)
